Assay results published in patent US20230382949A1 (HEPTARES THERAPEUTICS LIMITED, priority 2020, published 2023).
pEC50: −log10 of the molar value. Like-named read-outs stand apart in the source and are kept apart here. Starred links: 1 amine or outer side, 2 acyl side, 3 side chain; linkers in the order of their positions; H or OH if unused. Non-standard residues stand in square brackets, D forms with d. Residues, ends and D or L forms follow the SMILES beside them. *: point of attachment. Ala(piperidin-4-yl) = O=C([C@H](CC1CCN([*:3])CC1)N[*:1])[*:2]; Malonyl(2,2-Me2,histaminyl) = CC(C)(C(=O)NCCc1cnc[nH]1)C(=O)*; dBip = N[C@H](Cc1ccc(-c2ccccc2)cc1)C(=O)O; Oic = O=C(O)[C@@H]1C[C@@H]2CCCC[C@@H]2N1; Phe(4-Br) = N[C@@H](Cc1ccc(Br)cc1)C(=O)O; His(τ-Me) = Cn1cnc(C[C@H](N)C(=O)O)c1; X5 = CC(C)(C(=O)NCc1c[nH]cn1)C(=O)*; X1 = CC(C)(C(=O)NCCc1ccccc1)C(=O)*; X3 = CC(C)(C(=O)NCCc1ccccn1)C(=O)*; hArg = N=C(N)NCCCC[C@H](N)C(=O)O; 3Pal = N[C@@H](Cc1cccnc1)C(=O)O; NMeL = CN[C@@H](CC(C)C)C(=O)O; Pip = O=C(O)[C@@H]1CCCCN1; Aib = CC(C)(N)C(=O)O; Sar = CNCC(=O)O

What was measured:
human Apelin receptor [1] = molecular target: T1, human Apelin receptor (Homo sapiens, UniProt P35414); assay: cAMP accumulation assay (HTRF), functional agonism of human Apelin receptors; assay type: cell-based; details: for Emax: CHO; for pEC50: pEC50, Human Apelin agonist cAMP assay; for EC50: read-out: pEC50 (converted)
T1 sequence (P35414 1-380): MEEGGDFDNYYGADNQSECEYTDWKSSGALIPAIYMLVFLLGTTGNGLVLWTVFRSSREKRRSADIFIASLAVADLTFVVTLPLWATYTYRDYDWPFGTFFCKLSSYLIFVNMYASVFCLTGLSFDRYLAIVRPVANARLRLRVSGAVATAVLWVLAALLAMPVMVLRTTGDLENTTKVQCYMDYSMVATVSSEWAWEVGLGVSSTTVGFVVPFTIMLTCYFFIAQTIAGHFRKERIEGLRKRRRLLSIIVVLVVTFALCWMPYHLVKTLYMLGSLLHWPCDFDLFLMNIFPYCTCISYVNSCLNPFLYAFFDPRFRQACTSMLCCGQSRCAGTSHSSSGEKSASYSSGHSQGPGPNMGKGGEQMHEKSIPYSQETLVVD
Excerpt: cAMP functional assay. cAMP production was quantified using the Homogeneous Time-Resolved Fluorescence (HTRF) cAMP dynamic-2 assay (Cisbio, France).

human Apelin receptor [2] = molecular target: T2, human Apelin receptor (Homo sapiens, UniProt P35414); assay: β-arrestin accumulation assay, functional agonism of human Apelin receptors; assay type: cell-based
T2 construct: host or cells: CHO-K1 cells
How it was run: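 After 16 h at 37° C., cells were exposed to increasing agonist concentrations in serum-free medium for 90 min at 37° C. Detection reagent added for 60 min in the dark; receptor activation read by fluorescence and EC50 derived from concentration-response curves.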
T2 sequence (P32121 whole entry partner, one chain of several): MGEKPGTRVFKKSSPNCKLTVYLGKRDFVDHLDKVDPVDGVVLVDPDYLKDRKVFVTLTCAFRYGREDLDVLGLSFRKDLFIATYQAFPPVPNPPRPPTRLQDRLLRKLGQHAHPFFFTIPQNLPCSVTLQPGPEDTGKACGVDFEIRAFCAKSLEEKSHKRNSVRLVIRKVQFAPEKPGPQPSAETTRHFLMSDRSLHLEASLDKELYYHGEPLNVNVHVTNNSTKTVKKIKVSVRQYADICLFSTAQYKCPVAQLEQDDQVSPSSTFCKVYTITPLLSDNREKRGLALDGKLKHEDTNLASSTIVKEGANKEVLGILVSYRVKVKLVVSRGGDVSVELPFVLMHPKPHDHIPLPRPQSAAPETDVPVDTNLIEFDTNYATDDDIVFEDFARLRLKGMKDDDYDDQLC

[3] = Human Apelin agonist cAMP assay, CHO cells stably expressing the human Apelin receptor, 3 uM forskolin
[4] = CHO cells stably expressing the human Apelin receptor, 3 uM forskolin

| Emax (human Apelin receptor [1]; read-out: Emax) | EC50 (human Apelin receptor [1]) | Structure (SMILES) | Emax (human Apelin receptor [1]; [3]) | pEC50 (human Apelin receptor [1]; [4]) | pEC50 (human Apelin receptor [2]) |
| --- | --- | --- | --- | --- | --- |
| – | – | CC(C)C[C@H](NC(=O)[C@@H](CCCNC(=N)N)NC(=O)[C@@H]1CCCN1C(=O)[C@H](CCCCNC(=N)N)NC(=O)[C@H](CCC(N)=O)NC(=O)C(C)(C)C(=O)NCCc1ccccc1)C(=O)NC(C)(C)C(=O)N[C@@H](Cc1c[nH]cn1)C(=O)N[C@@H](CC1CCNCC1)C(=O)NCC(=O)N1[C@H](C(=O)N[C@@H](Cc2ccc(Br)cc2)C(=O)N2CCC[C@H]2C(=O)N[C@H](Cc2ccc(-c3ccccc3)cc2)C(=O)O)C[C@@H]2CCCC[C@@H]21 [Example 45] (X1-Q[hArg]P[dR]L[Aib]H[Ala(piperidin-4-yl)]G[Oic][Phe(4-Br)]P[dBip]-OH) | 59% | 7.40 | < 5.00 |
| – | – | CC(C)C[C@H](NC(=O)[C@@H](CCCNC(=N)N)NC(=O)[C@@H]1CCCN1C(=O)[C@H](CCCCNC(=N)N)NC(=O)[C@H](CCC(N)=O)NC(=O)C(C)(C)C(=O)NCCc1ccccn1)C(=O)NC(C)(C)C(=O)N[C@@H](Cc1c[nH]cn1)C(=O)N[C@@H](CC1CCNCC1)C(=O)NCC(=O)N1[C@H](C(=O)N[C@@H](Cc2ccc(Br)cc2)C(=O)N2CCC[C@H]2C(=O)N[C@H](Cc2ccc(-c3ccccc3)cc2)C(=O)O)C[C@@H]2CCCC[C@@H]21 [Example 46] (X3-Q[hArg]P[dR]L[Aib]H[Ala(piperidin-4-yl)]G[Oic][Phe(4-Br)]P[dBip]-OH) | 55% | 7.40 | < 5.00 |
| – | – | CC(C)C[C@H](NC(=O)[C@@H](CCCNC(=N)N)NC(=O)[C@@H]1CCCN1C(=O)[C@H](CCCCNC(=N)N)NC(=O)[C@H](CCC(N)=O)NC(=O)C(C)(C)C(=O)NCCc1cnc[nH]1)C(=O)N[C@@H](CO)C(=O)NC(C)(C)C(=O)N[C@@H](CC1CCNCC1)C(=O)NCC(=O)N1[C@H](C(=O)N[C@@H](Cc2ccc(Br)cc2)C(=O)N2CCC[C@H]2C(=O)N[C@H](Cc2ccc(-c3ccccc3)cc2)C(=O)O)C[C@@H]2CCCC[C@@H]21 [Example 47] ({Malonyl(2,2-Me2,histaminyl)}-Q[hArg]P[dR]LS[Aib][Ala(piperidin-4-yl)]G[Oic][Phe(4-Br)]P[dBip]-OH) | 94.2% | 7.90 | < 6.00 |
| – | – | CC(C)C[C@@H](NC(=O)[C@@H](CCCNC(=N)N)NC(=O)[C@@H]1CCCN1C(=O)[C@H](CCCCNC(=N)N)NC(=O)[C@@H](CCC(N)=O)NC(=O)C(C)(C)C(=O)NCCc1cnc[nH]1)C(=O)NC(C)(C)C(=O)N[C@@H](Cc1c[nH]cn1)C(=O)N[C@@H](CC1CCNCC1)C(=O)N[C@H](C)C(=O)N1[C@H](C(=O)N[C@@H](Cc2ccc(Br)cc2)C(=O)N2CCC[C@H]2C(=O)N[C@H](Cc2ccc(-c3ccccc3)cc2)C(=O)O)C[C@@H]2CCCC[C@@H]21 [Example 48] ({Malonyl(2,2-Me2,histaminyl)}-[dQ][hArg]P[dR][dL][Aib]H[Ala(piperidin-4-yl)][dA][Oic][Phe(4-Br)]P[dBip]-OH) | 33.5% | 7.00 | < 5.00 |
| – | – | CC(C)C[C@H](NC(=O)[C@H](CCCNC(=N)N)NC(=O)[C@@H]1CCCN1C(=O)[C@@H](CCCNC(=N)N)NC(=O)[C@H](CCC(N)=O)NC(=O)C(C)(C)C(=O)NCCc1cnc[nH]1)C(=O)NC(C)(C)C(=O)N[C@@H](Cc1cn(C)cn1)C(=O)N[C@@H](CC1CCNCC1)C(=O)NCC(=O)N1[C@H](C(=O)N[C@@H](Cc2ccc(Br)cc2)C(=O)N2CCC[C@H]2C(=O)N[C@H](Cc2ccc(-c3ccccc3)cc2)C(=O)O)C[C@@H]2CCCC[C@@H]21 [Example 49] ({Malonyl(2,2-Me2,histaminyl)}-Q[dR]PRL[Aib][His(τ-Me)][Ala(piperidin-4-yl)]G[Oic][Phe(4-Br)]P[dBip]-OH) | 87.2% | 8.10 | < 5.00 |
| – | – | CC(C)C[C@H](NC(=O)[C@@H](CCCNC(=N)N)NC(=O)[C@@H]1CCCN1C(=O)[C@H](CCCCNC(=N)N)NC(=O)[C@@H](CCC(N)=O)NC(=O)C(C)(C)C(=O)NCCc1cnc[nH]1)C(=O)NC(C)(C)C(=O)N[C@@H](Cc1c[nH]cn1)C(=O)N[C@@H](CC1CCNCC1)C(=O)NCC(=O)N1[C@H](C(=O)N[C@@H](Cc2ccc(Br)cc2)C(=O)N2CCC[C@H]2C(=O)N[C@H](Cc2ccc(-c3ccccc3)cc2)C(=O)O)C[C@@H]2CCCC[C@@H]21 [Example 50] ({Malonyl(2,2-Me2,histaminyl)}-[dQ][hArg]P[dR]L[Aib]H[Ala(piperidin-4-yl)]G[Oic][Phe(4-Br)]P[dBip]-OH) | 56.5% | 7.40 | < 5.00 |
| – | – | CC(C)C[C@@H](C(=O)NC(C)(C)C(=O)N[C@@H](Cc1c[nH]cn1)C(=O)N[C@@H](CC1CCNCC1)C(=O)NCC(=O)N1[C@H](C(=O)N[C@@H](Cc2ccc(Br)cc2)C(=O)N2CCC[C@H]2C(=O)N[C@H](Cc2ccc(-c3ccccc3)cc2)C(=O)O)C[C@@H]2CCCC[C@@H]21)N(C)C(=O)[C@@H](CCCNC(=N)N)NC(=O)[C@@H]1CCCN1C(=O)[C@H](CCCCNC(=N)N)NC(=O)[C@H](CCC(N)=O)NC(=O)C(C)(C)C(=O)NCCc1cnc[nH]1 [Example 51] ({Malonyl(2,2-Me2,histaminyl)}-Q[hArg]P[dR][NMeL][Aib]H[Ala(piperidin-4-yl)]G[Oic][Phe(4-Br)]P[dBip]-OH) | 27.6% | 7.10 | < 5.00 |
| – | – | CC(C)C[C@H](NC(=O)[C@@H](CCCNC(=N)N)NC(=O)[C@@H]1CCCN1C(=O)[C@H](CCCCNC(=N)N)NC(=O)[C@H](CCC(N)=O)NC(=O)C(C)(C)C(=O)NCCc1cnc[nH]1)C(=O)NC(C)(C)C(=O)N[C@@H](Cc1c[nH]cn1)C(=O)N[C@@H](CC1CCNCC1)C(=O)N(C)CC(=O)N1[C@H](C(=O)N[C@@H](Cc2ccc(Br)cc2)C(=O)N2CCC[C@H]2C(=O)N[C@H](Cc2ccc(-c3ccccc3)cc2)C(=O)O)C[C@@H]2CCCC[C@@H]21 [Example 52] ({Malonyl(2,2-Me2,histaminyl)}-Q[hArg]P[dR]L[Aib]H[Ala(piperidin-4-yl)][Sar][Oic][Phe(4-Br)]P[dBip]-OH) | 20.4% | 7.20 | < 5.00 |
| 79.2% | 31.6 nM | CC(C)C[C@H](NC(=O)[C@@H](CCCNC(=N)N)NC(=O)[C@@H]1CCCN1C(=O)[C@H](CCCCNC(=N)N)NC(=O)[C@H](CCC(N)=O)NC(=O)C(C)(C)C(=O)NCc1c[nH]cn1)C(=O)NC(C)(C)C(=O)N[C@@H](Cc1c[nH]cn1)C(=O)N[C@@H](CC1CCNCC1)C(=O)NCC(=O)N1[C@H](C(=O)N[C@@H](Cc2ccc(Br)cc2)C(=O)N2CCC[C@H]2C(=O)N[C@H](Cc2ccc(-c3ccccc3)cc2)C(=O)O)C[C@@H]2CCCC[C@@H]21 [Example 53] (X5-Q[hArg]P[dR]L[Aib]H[Ala(piperidin-4-yl)]G[Oic][Phe(4-Br)]P[dBip]-OH) | – | – | < 5.00 |
| 61.2% | 1.26 nM | CC(C)C[C@H](NC(=O)[C@@H](CCCNC(=N)N)NC(=O)[C@@H]1CCCCN1C(=O)[C@H](CCCCNC(=N)N)NC(=O)[C@H](CCC(N)=O)NC(=O)C(C)(C)C(=O)NCCc1cnc[nH]1)C(=O)NC(C)(C)C(=O)N[C@@H](Cc1c[nH]cn1)C(=O)N[C@@H](CC1CCNCC1)C(=O)N[C@@H](C)C(=O)N1[C@H](C(=O)N[C@@H](Cc2ccc(Br)cc2)C(=O)N2CCC[C@H]2C(=O)N[C@H](Cc2ccc(-c3ccccc3)cc2)C(=O)O)C[C@@H]2CCCC[C@@H]21 [Example 54] ({Malonyl(2,2-Me2,histaminyl)}-Q[hArg][Pip][dR]L[Aib]H[Ala(piperidin-4-yl)]A[Oic][Phe(4-Br)]P[dBip]-OH) | – | – | < 5.00 |
| 85.9% | 12.6 nM | CC(C)C[C@H](NC(=O)[C@@H](CCCNC(=N)N)NC(=O)[C@@H]1CCCCN1C(=O)[C@H](CCCNC(=N)N)NC(=O)[C@H](CCC(N)=O)NC(=O)C(C)(C)C(=O)NCCc1cnc[nH]1)C(=O)NC(C)(C)C(=O)N[C@@H](Cc1c[nH]cn1)C(=O)N[C@@H](CC1CCNCC1)C(=O)NCC(=O)N1[C@H](C(=O)N[C@@H](Cc2ccc(Br)cc2)C(=O)N2CCC[C@H]2C(=O)N[C@H](Cc2ccc(-c3ccccc3)cc2)C(=O)O)C[C@@H]2CCCC[C@@H]21 [Example 55] ({Malonyl(2,2-Me2,histaminyl)}-QR[Pip][dR]L[Aib]H[Ala(piperidin-4-yl)]G[Oic][Phe(4-Br)]P[dBip]-OH) | – | – | < 5.00 |
| 68.1% | 20 nM | CC(C)C[C@H](NC(=O)[C@@H](CCCNC(=N)N)NC(=O)[C@@H]1CCCCN1C(=O)[C@H](CCCCNC(=N)N)NC(=O)[C@H](CCC(N)=O)NC(=O)C(C)(C)C(=O)NCCc1cnc[nH]1)C(=O)NC(C)(C)C(=O)N[C@@H](Cc1cccnc1)C(=O)N[C@@H](CC1CCNCC1)C(=O)NCC(=O)N1[C@H](C(=O)N[C@@H](Cc2ccc(Br)cc2)C(=O)N2CCC[C@H]2C(=O)N[C@H](Cc2ccc(-c3ccccc3)cc2)C(=O)O)C[C@@H]2CCCC[C@@H]21 [Example 56] ({Malonyl(2,2-Me2,histaminyl)}-Q[hArg][Pip][dR]L[Aib][3Pal][Ala(piperidin-4-yl)]G[Oic][Phe(4-Br)]P[dBip]-OH) | – | – | < 5.00 |
